Where two headings read alike, the source gives them in different places.
Key:
Experiment in all cases: MTT cytotoxicity assay, 48 h, alone and in combination (IC50 and Combination Index)
Format in all cases: cell-based
KB cell line = system: KB cell line
Method: A study was performed to determine the effect of the concentration of the recombinant lectin represented by SEQ ID NO: 1 on the IC50 of5-FU for cytotoxicity in KB cells.
Similarly another study was performed for Cisplatin in combination with the recombinant lectin of SEQ ID NO: 1.
Similarly another set of cells were treated with Cisplatin(0.1 μM to 1.5 μM)in combination with SEQ ID NO: 1(5.0 μg/mL-90 μg/mL).

HT-29 cell line = details: Homo sapiens
PANC-1 cell line = details: Homo sapiens
Method: The cytotoxic effect on each combination was determined by MTT assay.
(§1) Combination Index (CI) values were determined for each drug concentration combination. The CI values were calculated based on the IC50 values using the formula as given in below.

MDA-MB-231 cell line = system: MDA-MB-231 cell line
Method: (§2) The cell were kept in contact with the recombinant lectin of SEQ ID NO: 1 and the chemotherapy agent for 48 h and the cytotoxic effect (percentage cytotoxicity) was measured. The cytotoxic effect was determined by well-known colorimetric MTT assay (Mossman, T. 1983 Rapid colorimetric assay for cellular growth and survival: application to proliferation and cytotoxicity assays Journal of Immunological Methods, volume 65, pages 55-63) for assessing cell metabolic activity.
(§3) Based on percentage cytotoxicity data, IC50 values were determined using the software GraphPad Prism version 4.01.
as §1
A study was performed to determine the effect of the concentration of the recombinant lectin represented by SEQ ID NO: 1 on the IC50 of Paclitaxel for cytotoxicity in MDA-MB-231 cells. Conversely the effect of the concentration of Paclitaxel on the IC50 of the recombinant lectin represented by SEQ ID NO: 1.
Similarly another study was performed for Carboplatin in combination with the recombinant lectin of SEQ ID NO: 1.
In a further study, MDA-MB-231 cells were treated with Paclitaxel (0.001 nM-10 nM) in combination with SEQ ID NO: 1(2.5 μg/mL-80 μg/mL) for 48 h. Similarly another set of cells were treated with Carboplatin (10 μM-1000 μM) in combination with SEQ ID NO: 1 (2.5 μg/mL-80 μg/mL).

T24 cell line = details: for Conc. of other therapeutic agents showing synergistic effect: paired with SEQ ID NO: 1 conc.
Method: as §2, §3, §1
A study was performed to determine the effect of the concentration of the recombinant lectin represented by SEQ ID NO: 1 on the IC50 of Cisplatin for cytotoxicity in T24 cells. Conversely the effect of the concentration of Cisplatin on the IC50 of the recombinant lectin represented by SEQ ID NO: 1.
Similarly another study was performed for Gemcitabine in combination with the recombinant lectin of SEQ ID NO: 1.
This was performed using the same techniques as in Example 1-1.
In a further study, T24 cells were treated with Cisplatin (1 μM-500 μM) in combination with SEQ ID NO: 1(2.5 μg/mL-80 μg/mL) for 48 h. Similarly another set of cells were treated with Gemcitabine (1 μM-300 μM) in combination with SEQ ID NO: 1 (2.5 μg/mL-80 μg/mL). Combination Index values were determined for each drug combination and resultant antagonistic, additive or synergistic effect was determined, as described in Example 1-2.

PA-1 cell line = system: PA-1 cell line
Method: In a further study, PA-1 cells were treated with Cisplatin(0.01 μM-5 μM) in combination with SEQ ID NO: 1(1 μg/mL-20 μg/mL) for 48 h. Similarly another set of cells were treated with Paclitaxel (0.01 nM-5 nM) in combination with SEQ ID NO: 1 (1 μg/mL-20 μg/mL).

[1] = SEQ ID NO: 1 at 0 μg/mL, read-out: IC50 of Cisplatin
[2] = SEQ ID NO: 1 at 5 μg/mL, read-out: IC50 of Cisplatin
[3] = SEQ ID NO: 1 at 10 μg/mL, read-out: IC50 of Cisplatin
[4] = SEQ ID NO: 1 at 20 μg/mL, read-out: IC50 of Cisplatin
[5] = SEQ ID NO: 1 at 40 μg/mL, read-out: IC50 of Cisplatin
[6] = SEQ ID NO: 1 at […], read-out: IC50 of Cisplatin

O=c1[nH]cc(F)c(=O)[nH]1 [5-FU, 5-Fluorouracil, reference compound]
Conc. of other therapeutic agents showing synergistic effect (KB cell line; 5-FU with SEQ ID NO: 1, paired with SEQ ID NO: 1 conc.): 0.01 to 5 µM
IC50 (KB cell line; Homo sapiens, KB, read-out: IC50 of 5-FU, SEQ ID NO: 1 at 0 μg/mL): 15 nM
IC50 (KB cell line; Homo sapiens, KB, read-out: IC50 of 5-FU, SEQ ID NO: 1 at 5 μg/mL): 0.1 nM
IC50 (KB cell line; Homo sapiens, KB, read-out: IC50 of 5-FU, SEQ ID NO: 1 at 10 μg/mL): 0.00531 nM
IC50 (KB cell line; Homo sapiens, KB, read-out: IC50 of 5-FU, SEQ ID NO: 1 at 20 μg/mL): 0.0134 nM
IC50 (KB cell line; Homo sapiens, KB, read-out: IC50 of 5-FU, SEQ ID NO: 1 at 30 μg/mL): 0.00119 nM
IC50 (HT-29 cell line; HT-29, read-out: IC50 of 5-FU, SEQ ID NO: 1 at 0 μg/mL): 137 µM
IC50 (HT-29 cell line; HT-29, read-out: IC50 of 5-FU, SEQ ID NO: 1 at 1 μg/mL): 173 µM
IC50 (HT-29 cell line; HT-29, read-out: IC50 of 5-FU, SEQ ID NO: 1 at 5 μg/mL): 25.9 µM
IC50 (HT-29 cell line; HT-29, read-out: IC50 of 5-FU, SEQ ID NO: 1 at 10 μg/mL): 4.51 µM
IC50 (HT-29 cell line; HT-29, read-out: IC50 of 5-FU, SEQ ID NO: 1 at 20 μg/mL): 0.282 µM
IC50 (HT-29 cell line; HT-29, read-out: IC50 of 5-FU, SEQ ID NO: 1 at 40 μg/mL): 1.24 µM
IC50 (HT-29 cell line; HT-29, read-out: IC50 of 5-FU, SEQ ID NO: 1 at 80 μg/mL): 4.88 µM
IC50 (PANC-1 cell line; PANC-1, read-out: IC50 of 5-FU, SEQ ID NO: 1 at 0 μg/mL): 87 µM
IC50 (PANC-1 cell line; PANC-1, read-out: IC50 of 5-FU, SEQ ID NO: 1 at 5 μg/mL): 1.41 µM
IC50 (PANC-1 cell line; PANC-1, read-out: IC50 of 5-FU, SEQ ID NO: 1 at 10 μg/mL): 1.26 µM
IC50 (PANC-1 cell line; PANC-1, read-out: IC50 of 5-FU, SEQ ID NO: 1 at 20 μg/mL): 0.869 µM
IC50 (PANC-1 cell line; PANC-1, read-out: IC50 of 5-FU, SEQ ID NO: 1 at 40 μg/mL): 8.45 µM
IC50 (PANC-1 cell line; PANC-1, read-out: IC50 of 5-FU, SEQ ID NO: 1 at 80 μg/mL): 0.725 µM
IC50 (PANC-1 cell line; PANC-1, read-out: IC50 of 5-FU, SEQ ID NO: 1 at […]): 297 µM

N.N.O=C([O-])C1(C(=O)[O-])CCC1.[Pt+2] [Carboplatin, reference compound]
IC50 (MDA-MB-231 cell line; SEQ ID NO: 1 at 0 μg/mL, read-out: IC50 of Carboplatin): 477000 nM
IC50 (MDA-MB-231 cell line; SEQ ID NO: 1 at 5 μg/mL, read-out: IC50 of Carboplatin): 3980 nM
IC50 (MDA-MB-231 cell line; SEQ ID NO: 1 at 10 μg/mL, read-out: IC50 of Carboplatin): 4920 nM
IC50 (MDA-MB-231 cell line; SEQ ID NO: 1 at 20 μg/mL, read-out: IC50 of Carboplatin): 8440 nM
IC50 (MDA-MB-231 cell line; SEQ ID NO: 1 at 40 μg/mL, read-out: IC50 of Carboplatin): 1420 nM
IC50 (MDA-MB-231 cell line; SEQ ID NO: 1 at 80 μg/mL, read-out: IC50 of Carboplatin): 5870 nM
IC50 (MDA-MB-231 cell line; SEQ ID NO: 1 at […], read-out: IC50 of Carboplatin): 226000 nM

N.N.[Cl][Pt][Cl] [Cisplatin, reference compound]
Conc. of other therapeutic agents showing synergistic effect (T24 cell line; Cisplatin with SEQ ID NO: 1): 1 to 500 µM
IC50 (T24 cell line; [1]): 39000 nM
IC50 (T24 cell line; [2]): 3800 nM
IC50 (T24 cell line; [3]): 97.1 nM
IC50 (T24 cell line; [4]): 34.4 nM
IC50 (T24 cell line; [5]): 83.6 nM
IC50 (T24 cell line; SEQ ID NO: 1 at 80 μg/mL, read-out: IC50 of Cisplatin): 13.4 nM
IC50 (T24 cell line; [6]): 22900 nM
IC50 (KB cell line; [1]): 722 nM
IC50 (KB cell line; [2]): 375 nM
IC50 (KB cell line; [3]): 269 nM
IC50 (KB cell line; [4]): 134 nM
IC50 (KB cell line; SEQ ID NO: 1 at 30 μg/mL, read-out: IC50 of Cisplatin): 66.2 nM
IC50 (KB cell line; [5]): 7.12 nM
IC50 (KB cell line; SEQ ID NO: 1 at 90 μg/mL, read-out: IC50 of Cisplatin): 9.93 nM
IC50 (PA-1 cell line; SEQ ID NO: 1 at 1 μg/mL, read-out: IC50 of Cisplatin): 716 nM
IC50 (PA-1 cell line; [2]): 93 nM
IC50 (PA-1 cell line; [3]): 4.2 nM
IC50 (PA-1 cell line; SEQ ID NO: 1 at 15 μg/mL, read-out: IC50 of Cisplatin): 0.5 nM
IC50 (PA-1 cell line; [4]): 0.1 nM
IC50 (PA-1 cell line; [6]): 314 nM

Nc1ccn([C@@H]2O[C@H](CO)[C@@H](O)C2(F)F)c(=O)n1 [Gemcitabine, reference compound]
Conc. of other therapeutic agents showing synergistic effect (T24 cell line; Gemcitabine with SEQ ID NO: 1): 1 to 300 µM
IC50 (T24 cell line; Homo sapiens, T-24, SEQ ID NO: 1 at 0 μg/mL, read-out: IC50 of Gemcitabine): 15400 nM
IC50 (T24 cell line; Homo sapiens, T-24, SEQ ID NO: 1 at 5 μg/mL, read-out: IC50 of Gemcitabine): 141 nM
IC50 (T24 cell line; Homo sapiens, T-24, SEQ ID NO: 1 at 10 μg/mL, read-out: IC50 of Gemcitabine): 0.32 nM
IC50 (T24 cell line; Homo sapiens, T-24, SEQ ID NO: 1 at 20 μg/mL, read-out: IC50 of Gemcitabine): 0.02 nM
IC50 (T24 cell line; Homo sapiens, T-24, SEQ ID NO: 1 at […], read-out: IC50 of Gemcitabine): 802 nM
IC50 (PANC-1 cell line; PANC-1, SEQ ID NO: 1 at 0 μg/mL, read-out: IC50 of Gemcitabine): 7.41 µM
IC50 (PANC-1 cell line; PANC-1, SEQ ID NO: 1 at 5 μg/mL, read-out: IC50 of Gemcitabine): 10.8 µM
IC50 (PANC-1 cell line; PANC-1, SEQ ID NO: 1 at 10 μg/mL, read-out: IC50 of Gemcitabine): 3.04 µM
IC50 (PANC-1 cell line; PANC-1, SEQ ID NO: 1 at 20 μg/mL, read-out: IC50 of Gemcitabine): 0.039 µM
IC50 (PANC-1 cell line; PANC-1, SEQ ID NO: 1 at 40 μg/mL, read-out: IC50 of Gemcitabine): 0.038 µM
IC50 (PANC-1 cell line; PANC-1, SEQ ID NO: 1 at 80 μg/mL, read-out: IC50 of Gemcitabine): 10.6 µM
IC50 (PANC-1 cell line; PANC-1, SEQ ID NO: 1 at […], read-out: IC50 of Gemcitabine): 15.9 µM

CCc1c2c(nc3ccc(OC(=O)N4CCC(N5CCCCC5)CC4)cc13)-c1cc3c(c(=O)n1C2)COC(=O)[C@]3(O)CC [Irinotecan, reference compound]
IC50 (HT-29 cell line; HT-29, SEQ ID NO: 1 at 0 μg/mL, read-out: IC50 of Irinotecan): 16.2 µM
IC50 (HT-29 cell line; HT-29, SEQ ID NO: 1 at 1 μg/mL, read-out: IC50 of Irinotecan): 49.2 µM
IC50 (HT-29 cell line; HT-29, SEQ ID NO: 1 at 5 μg/mL, read-out: IC50 of Irinotecan): 2.78 µM
IC50 (HT-29 cell line; HT-29, SEQ ID NO: 1 at 10 μg/mL, read-out: IC50 of Irinotecan): 5.45 µM
IC50 (HT-29 cell line; HT-29, SEQ ID NO: 1 at 20 μg/mL, read-out: IC50 of Irinotecan): 1.34 µM
IC50 (HT-29 cell line; HT-29, SEQ ID NO: 1 at 40 μg/mL, read-out: IC50 of Irinotecan): 0.278 µM
IC50 (HT-29 cell line; HT-29, SEQ ID NO: 1 at 80 μg/mL, read-out: IC50 of Irinotecan): 0.167 µM

CC(=O)O[C@H]1C(=O)[C@@]2(C)[C@H]([C@H](OC(=O)c3ccccc3)[C@]3(O)C[C@H](OC(=O)[C@H](O)[C@@H](NC(=O)c4ccccc4)c4ccccc4)C(C)=C1C3(C)C)[C@]1(OC(C)=O)CO[C@@H]1C[C@@H]2O [Paclitaxel, reference compound]
IC50 (PA-1 cell line; Homo sapiens, PA-1, SEQ ID NO: 1 at 0 μg/mL, read-out: IC50 of Paclitaxel): 4.04 nM
IC50 (PA-1 cell line; Homo sapiens, PA-1, SEQ ID NO: 1 at 1 μg/mL, read-out: IC50 of Paclitaxel): 3.62 nM
IC50 (PA-1 cell line; Homo sapiens, PA-1, SEQ ID NO: 1 at 5 μg/mL, read-out: IC50 of Paclitaxel): 0.222 nM
IC50 (PA-1 cell line; Homo sapiens, PA-1, SEQ ID NO: 1 at […], read-out: IC50 of Paclitaxel): 3.48 nM
Conc. of other therapeutic agents showing synergistic effect (PA-1 cell line; Paclitaxel with SEQ ID NO: 1, paired with SEQ ID NO: 1 conc.): 0.25 to 5 nM
IC50 (MDA-MB-231 cell line; Homo sapiens, MDA-MB-231, SEQ ID NO: 1 at 0 μg/mL, read-out: IC50 of Paclitaxel): 1.64 nM
IC50 (MDA-MB-231 cell line; Homo sapiens, MDA-MB-231, SEQ ID NO: 1 at 5 μg/mL, read-out: IC50 of Paclitaxel): 9.31 nM
IC50 (MDA-MB-231 cell line; Homo sapiens, MDA-MB-231, SEQ ID NO: 1 at 10 μg/mL, read-out: IC50 of Paclitaxel): 0.389 nM
IC50 (MDA-MB-231 cell line; Homo sapiens, MDA-MB-231, SEQ ID NO: 1 at 20 μg/mL, read-out: IC50 of Paclitaxel): 0.123 nM
IC50 (MDA-MB-231 cell line; Homo sapiens, MDA-MB-231, SEQ ID NO: 1 at […], read-out: IC50 of Paclitaxel): 3.98 nM

— US20220257704A1, “COMBINATION OF CHEMOTHERAPY WITH RECOMBINANT S. ROLFSII LECTIN” (Unichem Laboratories Ltd, priority 2018, published 2022)
